According to patent US12077503B2, “Substituted cyclic amides and their use as herbicides” (FMC CORPORATION, priority 2015, dated 2024):

What was measured:
Assay type in all cases: in vivo
Kochia (Kochia scoparia) [1] = experiment: Test A preemergence; settings: Bassia scoparia, pre-emergence, 240 h, 0 to 100 scale where 0 is no effect and 100 is complete control, read-out: Kochia plant response rating; for pest or weed control at 31 g/ha: 31 g ai/ha, Preemergence; for pest or weed control at 125 g/ha: 125 g ai/ha, preemergence, approx. 10 d
Procedure, shortened: (§1)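 Greenhouse, ~10 d after spray; visual injury vs untreated controls, 0 = no effect, 100 = complete control. Preemergence: directed soil spray over planted seeds. Postemergence: plants 2–10 cm, 1–2 leaf stage. Loam/sand blend. Compound in non-phytotoxic solvent with surfactant.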

[2] = system: barnyardgrass (Echinochloa crus-galli); experiment: Test A preemergence; settings: Echinochloa crus-galli, pre-emergence, 240 h, 0 to 100 scale where 0 is no effect and 100 is complete control, read-out: Barnyardgrass plant response rating; for pest or weed control at 31 g/ha: 31 g ai/ha, Preemergence; for pest or weed control at 125 g/ha: 125 g ai/ha, preemergence, approx. 10 d
Procedure, shortened: as §1

[3] = system: giant foxtail (Setaria faberii); experiment: Test A preemergence; settings: Setaria faberi, pre-emergence, 240 h, 0 to 100 scale where 0 is no effect and 100 is complete control, read-out: Foxtail, Giant plant response rating; for pest or weed control at 31 g/ha: 31 g ai/ha, Preemergence; for pest or weed control at 125 g/ha: 125 g ai/ha, preemergence, approx. 10 d
Procedure, shortened: as §1

[4] = system: pigweed (Amaranthus retroflexus); experiment: Test A preemergence; settings: Amaranthus retroflexus, pre-emergence, 240 h, 0 to 100 scale where 0 is no effect and 100 is complete control, read-out: Pigweed plant response rating; for pest or weed control at 31 g/ha: 31 g ai/ha, Preemergence; for pest or weed control at 125 g/ha: 125 g ai/ha, preemergence, approx. 10 d
[5] = system: ragweed (common ragweed, Ambrosia elatior); experiment: Test A preemergence; settings: Ambrosia artemisiifolia, pre-emergence, 240 h, 0 to 100 scale where 0 is no effect and 100 is complete control, read-out: Ragweed plant response rating; for pest or weed control at 31 g/ha: 31 g ai/ha, Preemergence; for pest or weed control at 125 g/ha: 125 g ai/ha, preemergence, approx. 10 d
Procedure, shortened: as §1

[6] = system: ryegrass, Italian (Italian ryegrass, Lolium multiflorum); experiment: Test A preemergence; settings: Lolium multiflorum, pre-emergence, 240 h, 0 to 100 scale where 0 is no effect and 100 is complete control, read-out: Ryegrass, Italian plant response rating; for pest or weed control at 31 g/ha: 31 g ai/ha, Preemergence; for pest or weed control at 125 g/ha: 125 g ai/ha, preemergence, approx. 10 d
Procedure, shortened: as §1

[7] = system: Galium (catchweed bedstraw, Galium aparine); experiment: Test A postemergence; settings: Galium, post-emergence, 240 h; for pest or weed control at 125 g/ha: 125 g ai/ha, postemergence, visual injury on 0 to 100 scale (0 no effect, 100 complete control), approx. 10 d, read-out: Galium plant response rating; for pest or weed control at 31 g/ha: Postemergence, 31 g ai/ha, visual injury after approx. 10 d, 0 to 100 scale, 0 no effect, 100 complete control, read-out: Plant response rating, Galium
Procedure, shortened: as §1

Kochia (Kochia scoparia) [8] = experiment: Test A postemergence; settings: Bassia scoparia, post-emergence, 240 h; for pest or weed control at 125 g/ha: 125 g ai/ha, postemergence, visual injury on 0 to 100 scale (0 no effect, 100 complete control), approx. 10 d, read-out: Kochia plant response rating; for pest or weed control at 31 g/ha: Postemergence, 31 g ai/ha, visual injury after approx. 10 d, 0 to 100 scale, 0 no effect, 100 complete control, read-out: Plant response rating, Kochia
Procedure, shortened: as §1

[9] = system: barnyardgrass (Echinochloa crus-galli); experiment: Test A postemergence; settings: Echinochloa crus-galli, post-emergence, 240 h; for pest or weed control at 125 g/ha: 125 g ai/ha, postemergence, visual injury on 0 to 100 scale (0 no effect, 100 complete control), approx. 10 d, read-out: Barnyardgrass plant response rating; for pest or weed control at 31 g/ha: Postemergence, 31 g ai/ha, visual injury after approx. 10 d, 0 to 100 scale, 0 no effect, 100 complete control, read-out: Plant response rating, Barnyardgrass
Procedure, shortened: as §1

[10] = system: blackgrass (Alopecurus myosuroides); experiment: Test A postemergence; settings: Alopecurus myosuroides, post-emergence, 240 h; for pest or weed control at 125 g/ha: 125 g ai/ha, postemergence, visual injury on 0 to 100 scale (0 no effect, 100 complete control), approx. 10 d, read-out: Blackgrass plant response rating; for pest or weed control at 31 g/ha: Postemergence, 31 g ai/ha, visual injury after approx. 10 d, 0 to 100 scale, 0 no effect, 100 complete control, read-out: Plant response rating, Blackgrass
Procedure, shortened: as §1

corn (Zea mays) = experiment: Test A postemergence; settings: Zea mays, post-emergence, 240 h; for plant injury at 125 g/ha: 125 g ai/ha, postemergence, visual injury on 0 to 100 scale (0 no effect, 100 complete control), approx. 10 d, read-out: Corn plant response rating; for Corn plant response rating (crop injury, 0 = no effect, 100 = complete kill) at 31 g/ha: Postemergence, 31 g ai/ha, visual injury after approx. 10 d, 0 to 100 scale, 100 complete control
Procedure, shortened: as §1

[11] = system: giant foxtail (Setaria faberii); experiment: Test A postemergence; settings: Setaria faberi, post-emergence, 240 h; for pest or weed control at 125 g/ha: 125 g ai/ha, postemergence, visual injury on 0 to 100 scale (0 no effect, 100 complete control), approx. 10 d, read-out: Foxtail, Giant plant response rating; for pest or weed control at 31 g/ha: Postemergence, 31 g ai/ha, visual injury after approx. 10 d, 0 to 100 scale, 0 no effect, 100 complete control, read-out: Plant response rating, Foxtail, Giant
Procedure, shortened: as §1

[12] = system: pigweed (Amaranthus retroflexus); experiment: Test A postemergence; settings: Amaranthus retroflexus, post-emergence, 240 h; for pest or weed control at 125 g/ha: 125 g ai/ha, postemergence, visual injury on 0 to 100 scale (0 no effect, 100 complete control), approx. 10 d, read-out: Pigweed plant response rating; for pest or weed control at 31 g/ha: Postemergence, 31 g ai/ha, visual injury after approx. 10 d, 0 to 100 scale, 0 no effect, 100 complete control, read-out: Plant response rating, Pigweed
Procedure, shortened: as §1

[13] = system: ragweed (common ragweed, Ambrosia elatior); experiment: Test A postemergence; settings: Ambrosia artemisiifolia, post-emergence, 240 h; for pest or weed control at 125 g/ha: 125 g ai/ha, postemergence, visual injury on 0 to 100 scale (0 no effect, 100 complete control), approx. 10 d, read-out: Ragweed plant response rating; for pest or weed control at 31 g/ha: Postemergence, 31 g ai/ha, visual injury after approx. 10 d, 0 to 100 scale, 0 no effect, 100 complete control, read-out: Plant response rating, Ragweed
Procedure, shortened: as §1

[14] = system: ryegrass, Italian (Italian ryegrass, Lolium multiflorum); experiment: Test A postemergence; settings: Lolium multiflorum, post-emergence, 240 h; for pest or weed control at 125 g/ha: 125 g ai/ha, postemergence, visual injury on 0 to 100 scale (0 no effect, 100 complete control), approx. 10 d, read-out: Ryegrass, Italian plant response rating; for pest or weed control at 31 g/ha: Postemergence, 31 g ai/ha, visual injury after approx. 10 d, 0 to 100 scale, 0 no effect, 100 complete control, read-out: Plant response rating, Ryegrass, Italian
Procedure, shortened: as §1

[15] = system: wheat (Triticum aestivum); experiment: Test A postemergence; settings: Triticum aestivum, post-emergence, 240 h; for plant injury at 125 g/ha: 125 g ai/ha, postemergence, visual injury on 0 to 100 scale (0 no effect, 100 complete control), approx. 10 d, read-out: Wheat plant response rating; for plant injury at 31 g/ha: Postemergence, 31 g ai/ha, visual injury after approx. 10 d, 0 to 100 scale, 0 no effect, 100 complete control, read-out: Plant response rating, Wheat
Procedure, shortened: as §1

[16] = system: barnyardgrass (Echinochloa crus-galli); experiment: Test B flooded paddy test; settings: Echinochloa crus-galli, 250 g ai/ha, Flood; 0 to 100 scale where 0 is no effect and 100 is complete control; read-out: Barnyardgrass plant response rating
Procedure, shortened: (§2)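 Evaluation by eye, against controls, occurred 13–15 d post-treatment in a greenhouse, using a 0 (no effect) to 100 (complete control) scale. Application was into the paddy water, 3 cm deep over the soil, on 2-leaf plants.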

[17] = system: ducksalad (Heteranthera limosa); experiment: Test B flooded paddy test; settings: Heteranthera limosa, 250 g ai/ha, Flood; 0 to 100 scale where 0 is no effect and 100 is complete control; read-out: Ducksalad plant response rating
Procedure, shortened: as §2

rice (Oryra sativa) = experiment: Test B flooded paddy test; settings: Oryza sativa, 250 g ai/ha, Flood; 0 to 100 scale where 0 is no effect and 100 is complete control; read-out: Rice plant response rating
Procedure, shortened: as §2

[18] = system: sedge, umbrella (small-flower umbrella sedge, Cyperus difformis); experiment: Test B flooded paddy test; settings: Cyperus difformis, 250 g ai/ha, Flood; 0 to 100 scale where 0 is no effect and 100 is complete control; read-out: Sedge, Umbrella plant response rating
Procedure, shortened: as §2

Compound	pest or weed control at 31 g/ha (Kochia (Kochia scoparia) [1]) [%]	pest or weed control at 125 g/ha (Kochia (Kochia scoparia) [1]) [%]	pest or weed control at 31 g/ha [2] [%]	pest or weed control at 125 g/ha [2] [%]	pest or weed control at 31 g/ha [3] [%]	pest or weed control at 125 g/ha [3] [%]	pest or weed control at 31 g/ha [4] [%]	pest or weed control at 125 g/ha [4] [%]	pest or weed control at 31 g/ha [5] [%]	pest or weed control at 125 g/ha [5] [%]	pest or weed control at 31 g/ha [6] [%]	pest or weed control at 125 g/ha [6] [%]	pest or weed control at 125 g/ha [7] [%]	pest or weed control at 31 g/ha [7] [%]	pest or weed control at 125 g/ha (Kochia (Kochia scoparia) [8]) [%]	pest or weed control at 31 g/ha (Kochia (Kochia scoparia) [8]) [%]	pest or weed control at 125 g/ha [9] [%]	pest or weed control at 31 g/ha [9] [%]	pest or weed control at 125 g/ha [10] [%]	pest or weed control at 31 g/ha [10] [%]	further results
CN1C[C@H](c2csc3c2CCCC3)[C@@H](C(=O)Nc2ccc(F)c(F)c2F)C1=O [Compound 1079]	0	0	0	80	20	100	0	0	0	0	0	0	0	0	20	0	90	20	0	0	plant injury at 125 g/ha (corn (Zea mays)): 0%; Corn plant response rating (crop injury, 0 = no effect, 100 = complete kill) at 31 g/ha (corn (Zea mays)): 0%; pest or weed control at 125 g/ha [11]: 20%; pest or weed control at 31 g/ha [11]: 0%; pest or weed control at 125 g/ha [12]: 0%; pest or weed control at 31 g/ha [12]: 0%; pest or weed control at 125 g/ha [13]: 0%; pest or weed control at 31 g/ha [13]: 0%; pest or weed control at 125 g/ha [14]: 0%; pest or weed control at 31 g/ha [14]: 0%; plant injury at 125 g/ha [15]: 30%; plant injury at 31 g/ha [15]: 0%; pest or weed control at 250 g/ha [16]: 60%; pest or weed control at 250 g/ha [17]: 30%; pest or weed control at 250 g/ha (rice (Oryra sativa)): 20%; pest or weed control at 250 g/ha [18]: 0%
CN1C[C@H](c2csc3c2CCC3)[C@@H](C(=O)Nc2ccc(F)c(F)c2F)C1=O [Compound 1081]	20	30	10	90	100	100	0	0	0	0	0	0	20	0	0	0	90	30	0	0	plant injury at 125 g/ha (corn (Zea mays)): 20%; Corn plant response rating (crop injury, 0 = no effect, 100 = complete kill) at 31 g/ha (corn (Zea mays)): 0%; pest or weed control at 125 g/ha [11]: 80%; pest or weed control at 31 g/ha [11]: 10%; pest or weed control at 125 g/ha [12]: 0%; pest or weed control at 31 g/ha [12]: 0%; pest or weed control at 125 g/ha [13]: 0%; pest or weed control at 31 g/ha [13]: 0%; pest or weed control at 125 g/ha [14]: 0%; pest or weed control at 31 g/ha [14]: 0%; plant injury at 125 g/ha [15]: 20%; plant injury at 31 g/ha [15]: 0%; pest or weed control at 250 g/ha [16]: 90%; pest or weed control at 250 g/ha [17]: 80%; pest or weed control at 250 g/ha (rice (Oryra sativa)): 40%; pest or weed control at 250 g/ha [18]: 0%
